{
  "source": "patent US4894388A",
  "about": "“Glycosidase inhibitors and use thereof” (priority 1988, dated 1990)",
  "origin": "cited, not measured here",
  "data": [
    {"test_system": "human immunodeficiency virus (HIV)", "settings": "background literature; cited from earlier work", "values": [
      {"molecule": "OC[C@H]1NC[C@H](O)[C@@H](O)[C@@H]1O", "note": "[1-deoxynojirimycin (DNJ), 1-deoxynojirimycin]", "inhibition of HIV synctium formation and virus replication (in words)": "found to inhibit human immunodeficiency virus (HIV) synctium formation and virus replication"},
      {"molecule": "OCC1NC(CO)C(O)C1O", "note": "(stereo not drawn) [2,5-dihydroxymethyl-3,4-dihydroxypyrrolidine]", "inhibition of HIV synctium formation and virus replication (in words)": "found to inhibit human immunodeficiency virus (HIV) synctium formation and virus replication"},
      {"molecule": "O[C@H]1[C@H](O)[C@@H](O)CN2CC[C@H](O)[C@H]12", "note": "[castanospermine]", "inhibition of HIV synctium formation and virus replication (in words)": "found to inhibit human immunodeficiency virus (HIV) synctium formation and virus replication"}
    ]}
  ]
}
